Results taken from US10766890B2, “Hepatitis B core protein modulators” (Assembly Biosciences, Inc., priority 2015, dated 2020).

Legend:
HBV = assay: Viral load production in AD38 cells, quantitative PCR of the core sequence in supernatant; assay type: cell-based; settings: 10 μM compound, 6 days at 37° C., supernatant qPCR vs DMSO control; for activity at 10 µM: Hepatitis B virus, 144 h, read-out: AD38 Viral Load (%) (VL with cmpd/VL in DMSO control) at 10 μM
Experimental: (§1) Example 63: Assay Measuring Activity of Compounds on Viral Production in and on Viability of AD38 Cells
(§2) AD38 cells were then re-suspended with 10 mL of Treatment Medium and counted. Wells of a collagen coated 96-well NUNC microtiter plate were seeded at 50,000/well in 180 μL of Treatment Medium, and 20 μL of in treatment media with either 10% DMSO (Control) or a 10× solution of compound in 10% DMSO was added. Plates were incubated for 6 days at 37° C.
Viral load production was assayed by quantitative PCR of the core sequence. […] The PCR mixture was incubated at 45° C. for 5 minutes, then 95° C. for 10 min, followed by 40 cycles of 10 seconds at 95° C. and 20 seconds at 60° C. Viral load was quantitated against known standards by using ViiA™ 7 Software. Viral load in the supernatant from wells with treated cells were compared against viral load in supernatant from DMSO control wells (≥3 per plate).

AD38 cells = assay: Viability of AD38 cells, Promega CellTiter-Glo; assay type: cell-based; settings: 10 μM compound, 6 days, CellTiter-Glo luminescence, controls being 100%
Experimental: as §1, §2
At the end of compound treatment period cell viability was assessed using a Promega CellTiter-Glo protocol. All supernatant was removed the previously treated 96-well microtiter plate, and 50 μL Tetracycline-free treatment medium (DMEM/F12 (1:1), 1×Pen/step (cat#: 30-002-CL, Mediatech, Inc), with 2% FBS, Tet-system approved (cat#: 631106, Clontech), and 1% DMSO was added back to each well. Another 50 μL of CellTiter-Glo reagent solution (Promega, G7573) was then added at room temperature and the contents mixed for 2 minutes on an orbital shaker to induce cell lysis. This was followed by incubation at room temperature for 10 minutes to stabilize the luminescent signal. The luminescence was recorded for 0.2 seconds per well on a Tecan multimode platereader (Infinite M1000 pro). The luminescent signal from each well was normalized against that of untreated (DMSO) control wells. All results in Table 3 were reported with percent viability (with controls being 100%).

Structure (SMILES)	activity at 10 µM (HBV) [%]	AD38 Viability Normalized Result (cmpd/DMSO %) at 10 μM (AD38 cells) [%]	AD38 Viral Load (%) (VL with cmpd/VL in DMSO control) at 10 μM (HBV)
O=C(NCc1ccc(-c2ccccc2)cc1)c1ccc2c(c1)NC(=O)c1ccccc1S2(=O)=O [Compound 563]	0.9	59	
COc1ccc(Sc2cccc(CNC(=O)c3ccc4c(c3)NC(=O)c3ccccc3O4)c2)cc1 [Compound 743-A]	22.7	91	
COc1ccc(Oc2cccc(CNC(=O)c3ccc4c(c3)NC(=O)c3ccccc3O4)c2)cc1 [Compound 745-A, N-(3-(4-methoxyphenoxy)benzyl)-11-oxo-10,11-dihydrodibenzo[b,f][1,4]oxazepine-8-carboxamide]	16.1	92	
COc1cccc(Cc2cccc(CNC(=O)c3ccc4c(c3)NC(=O)c3ccccc3S4(=O)=O)c2)c1 [Compound 808-A, N-(3-(3-methoxybenzyl)benzyl)-11-oxo-10,11-dihydrodibenzo[b,f][1,4]thiazepine-8-carboxamide 5,5-dioxide]	1.5	84	
O=C(NCc1ccc(-c2cccc(O)c2)cc1)c1ccc2c(c1)NC(=O)c1ccccc1S2(=O)=O [Compound 639]	4.5	34	
O=C(NCc1cccc(Cc2ccc(O)cc2)c1)c1ccc2c(c1)NC(=O)c1ccccc1O2 [Compound 741, N-(3-(4-hydroxybenzyl)benzyl)-11-oxo-10,11-dihydrodibenzo[b,f][1,4]oxazepine-8-carboxamide]	40.1	111	
N#Cc1ccc(-c2ccc(CNC(=O)c3ccc4c(c3)NC(=O)c3ccccc3S4(=O)=O)cc2)cc1 [Compound 652-A, N-((4′-cyano-[1,1′-biphenyl]-4-yl)methyl)-11-oxo-10,11-dihydrodibenzo[b,f][1,4]thiazepine-8-carboxamide 5,5-dioxide]	4.6	36	
O=C(NCCc1ccc(-c2ccc(F)cc2)cc1)c1ccc2c(c1)NC(=O)c1ccccc1S2 [Compound 538]	8.1	62	
CN(C)CCOc1ccc(-c2ccc(CNC(=O)c3ccc4c(c3)NC(=O)c3ccccc3S4(=O)=O)cc2)cc1 [Compound 657]	19.4	104	
O=C(NCCc1ccc(-c2ccc(F)cc2)cc1)c1ccc2c(c1)NC(=O)c1ccccc1S2(=O)=O [Compound 533]	0.6	3	
O=C(NCc1ccc(-c2ccc(O)cc2)cc1)c1ccc2c(c1)NC(=O)c1ccccc1O2 [Compound 719]	4.6	110	
COc1ccc(Cc2cccc(CNC(=O)c3ccc4c(c3)NC(=O)c3ccccc3S4(=O)=O)c2)cc1 [Compound 809-A, N-(3-(4-methoxybenzyl)benzyl)-11-oxo-10,11-dihydrodibenzo[b,f][1,4]thiazepine-8-carboxamide 5,5-dioxide]	0.6	85	
COc1cccc(Oc2cccc(CNC(=O)c3ccc4c(c3)NC(=O)c3ccccc3S4(=O)=O)c2)c1 [Compound 810-A, N-(3-(3-methoxyphenoxy)benzyl)-11-oxo-10,11-dihydrodibenzo[b,f][1, 4]thiazepine-8-carboxamide 5,5-dioxide]	1.1	90	
O=C(NCc1cccc(-c2ccccc2)c1)c1ccc2c(c1)NC(=O)c1ccccc1S2(=O)=O [Compound 565]	1.5	105	
O=C(NCc1ccc(-c2c[nH]nn2)cc1)c1ccc2c(c1)NC(=O)c1ccccc1S2(=O)=O [Compound 569]	2.8	100	
O=C(NCc1ccc(-c2ccc(O)cc2)c(Cl)c1)c1ccc2c(c1)NC(=O)c1ccccc1O2 [Compound 721]	9.7	29	
O=C(NCC(c1ccccc1)N1CCCC1)c1ccc2c(c1)NC(=O)c1ccccc1S2(=O)=O (stereo not shown) [Compound 471]	72.6	103	
O=C(NCCc1ccc(-c2cnn[nH]2)cc1)c1ccc2c(c1)NC(=O)c1ccccc1S2(=O)=O [Compound 475, N-(4-(1H-1,2,3-triazol-5-yl)phenethyl)-11-oxo-10,11-dihydrodibenzo[b,f][1,4]thiazepine-8-carboxamide 5,5-dioxide]	0.7	96	
NCc1ccc(-c2ccc(CNC(=O)c3ccc4c(c3)NC(=O)c3ccccc3O4)cc2)cc1 [Compound 726]		1	6.1
O=C(NCc1ccc(-c2ccc(O)cc2Cl)cc1)c1ccc2c(c1)NC(=O)c1ccccc1O2 [Compound 722]	8.8	29	
COc1cccc(Sc2cccc(CNC(=O)c3ccc4c(c3)NC(=O)c3ccccc3S4(=O)=O)c2)c1 [Compound 812-A, N-(3-((3-methoxyphenyl)thio)benzyl)-11-oxo-10,11-dihydrodibenzo[b,f][1,4]thiazepine-8-carboxamide 5,5-dioxide]	1.4	66	
CN(C)c1ccc(-c2ccc(CNC(=O)c3ccc4c(c3)NC(=O)c3ccccc3S4(=O)=O)cc2)cc1 [Compound 646]	6	92	
O=C(NCc1ccc(-c2cn(Cc3ccccc3)nn2)cc1)c1ccc2c(c1)NC(=O)c1ccccc1S2(=O)=O [Compound 569-A]	1.5	97	
O=C(NCc1cccc(Oc2cccc(O)c2)c1)c1ccc2c(c1)NC(=O)c1ccccc1S2(=O)=O [Compound 810, N-(3-(3-hydroxyphenoxy)benzyl)-11-oxo-10,11-dihydrodibenzo[b,f][1,4]thiazepine-8-carboxamide 5,5-dioxide]	3.2	93	
C[C@H](NC(=O)c1ccc2c(c1)NC(=O)c1ccccc1S2(=O)=O)c1ccc(-c2ccc(O)cc2)cc1 [Compound 640]	4.4	1	
N#Cc1cccc(-c2ccc(CNC(=O)c3ccc4c(c3)NC(=O)c3ccccc3S4(=O)=O)cc2)c1 [Compound 676-A]	5.9	98	
O=C(NCc1cccc(Cc2cccc(O)c2)c1)c1ccc2c(c1)NC(=O)c1ccccc1O2 [Compound 740]	23.8	103	
O=C(NCc1cccc(Cc2ccc(O)cc2)c1)c1ccc2c(c1)NC(=O)c1ccccc1S2(=O)=O [Compound 809, N-(3-(4-hydroxybenzyl)benzyl)-11-oxo-10,11-dihydrodibenzo[b,f][1,4]thiazepine-8-carboxamide 5,5-dioxide]	1.1	77	
O=C(NCc1cccc(-c2cccc(O)c2)c1)c1ccc2c(c1)NC(=O)c1ccccc1S2(=O)=O [Compound 774]	48.5	113	
